Like-named read-outs stand apart in the source and are kept apart here.
What was measured:
[1] = assay type: physicochemical; settings: rat; for Short-term stability (RSD,%): 4 h; for Post-preparation stability (RSD,%): 24 h; for Long-term stability (RSD,%): 15 days
Description: A 4°C freezer was then used to make and store the stock solution (1 mg/mL). Moreover, 50% methanol was used to dilute 1 μg/mL of the IS working solution. […] Before being analyzed, the entire set of QC samples were kept at −80°C. An examination of stability using QC samples at low, medium, and high doses. Short-term stability was measured by injecting samples after staying 4 h at room temperature (25°C). After preparation, the sample was kept at 4°C for 24 h, and the dosage was injected to ascertain the sample’s stability. To determine long-term stability, samples were frozen at −80°C for 15 days before being injected. By thawing the samples three times in a row at room temperature and a freezer at −20°C, the freeze–thaw stability was ascertained.

[2] = Pharmacokinetics of acteoside and its metabolites in rat plasma after oral acteoside (UPLC-QqQ-MS); assay type: in vivo, male Sprague–Dawley rats; settings: for AUC(0-inf) / AUC(0-t) / Tmax / half-life / Cmax / MRT last / MRT inf: male, Sprague-Dawley, rat, plasma, po, 100 mg/kg, metabolite in rat plasma following oral acteoside 100 mg/kg, n = 6; for Cmax: read-out: Cmax; for MRT last: read-out: MRT(0-t); for MRT inf: read-out: MRT(0-∞)
Description: After a week of acclimatization, rats were split into three groups at random: the wine-processed Cistanche polysaccharide group (WCP group), the unprocessed Cistanche polysaccharide group (UCP group), and the blank control group (Control group). Six rats each group were raised in the same cage for breeding. Prior to the experiment, provide water and regular laboratory meals to the rats at will and fast for one night before the experiment. In order to ensure the continuous intake of Cistanche polysaccharides, it was calculated according to the requirements of the Chinese Pharmacopoeia ([16]) based on the daily dosage of Cistanche for adults, the polysaccharide yield of Cistanche polysaccharides and the equivalent conversion formula of the drug administration between humans and rats ([17]). An appropriate amount of raw Cistanche polysaccharide and Cistanche wine polysaccharide were weighed, dissolved in pure water, and prepared with 15.06 g·kg^-1 administration solution for continuous administration for 21 days. After fasting overnight, on day 22, two fresh fecal samples were collected from each rat, put straight into a sterile tube from the anus, avoiding contact with skin or urine, and stored in a -80°C freezer immediately after freezing with liquid nitrogen for subsequent analysis. For the pharmacokinetics, in a 1.5 mL heparinized centrifuge tube, 0.3 mL of continuous blood collected from the orbital vein was taken from 0 min, 5 min, 10 min, 30 min, 1.0 […], and 36 h following oral administration of acteoside (100 mg/kg) in the three groups. Using a cryo-centrifuge, plasma samples were produced by centrifuging at 800 g for ten minutes at 4°C. After that, plasma samples were gathered and kept for later examination at -80°C. […] Following this,20 μL of genistein (1 μg/mL IS) solution and 600 μL of cold acetonitrile were then included and centrifuged for 5 min, the […] proteins were separated by vortexing for 5 min, and then they were spun down for 15 min at 4°C at 14,000 rpm. The supernatant was gathered and dried at 40°C with a light nitrogen stream. The dried remnant was then immersed in 100 μL of 25% aqueous acetonitrile fluid, and centrifugation was performed again for 10 min at 4°C at 14,000 rpm. Ultimately, the LC-MS/MS system was injected with 2 μL of the liquid for analysis. A 1.7 μm and 2.1 × 100 mm I.D. […] With a column temperature of 30°C, the flow rate was fixed at 0.3 mL/min. In the mass spectrometry analysis, negative ionization mode was performed with the following optimized parameters: capillary voltage, 3.0 kV; desolvation temperature, 400°C. […] Thus, multiple reaction monitoring (MRM) of the acteoside transitions at 623.37 → 161.02 m/z, caffeic acid transitions at 179.01 → 135.03 m/z, hydroxytyrosol transitions at 153.03 → 122.95 m/z, genistein transitions at 269.08 → 132.57 m/z was used for quantification. […] Data were processed using Masslynx workstation data acquisition and qualitative analysis software (4.1, Waters, USA). Using the DAS program (Chinese Pharmacological Society, Beijing, China), pharmacokinetic parameters were estimated.

SMILES: OCCc1ccc(O)c(O)c1 [Hydroxytyrosol, hydroxytyrosol]
- Freeze–thaw stability (RSD,%) ([1]; 25 ng/mL): 7.04%
- Freeze–thaw stability (RSD,%) ([1]; 200 ng/mL): 5.78%
- Freeze–thaw stability (RSD,%) ([1]; 1000 ng/mL): 4.24%
- Short-term stability (RSD,%) ([1]; 25 ng/mL): 5.34%
- Short-term stability (RSD,%) ([1]; 200 ng/mL): 3.26%
- Short-term stability (RSD,%) ([1]; 1000 ng/mL): 2.44%
- Post-preparation stability (RSD,%) ([1]; 25 ng/mL): 6.32%
- Post-preparation stability (RSD,%) ([1]; 200 ng/mL): 4.89%
- Post-preparation stability (RSD,%) ([1]; 1000 ng/mL): 3.21%
- Long-term stability (RSD,%) ([1]; 25 ng/mL): 7.78%
- Long-term stability (RSD,%) ([1]; 200 ng/mL): 5.86%
- Long-term stability (RSD,%) ([1]; 1000 ng/mL): 4.63%
- AUC(0-inf) ([2]; Control group): 42.5 ± 4.24 ng·h/mL
- AUC(0-t) ([2]; Control group): 40.6 ± 3.24 ng·h/mL
- Tmax ([2]; Control group): 0.25 h
- half-life ([2]; Control group): 0.813 ± 0.129 h
- Cmax ([2]; Control group): 30.3 ± 10.9 ng/mL
- MRT last ([2]; Control group): 1.2 ± 0.132 h
- MRT inf ([2]; Control group): 1.38 ± 0.145 h
- AUC(0-inf) ([2]; UCP group): 60.5 ± 5.72 ng·h/mL
- AUC(0-t) ([2]; UCP group): 56.5 ± 5.41 ng·h/mL
- Tmax ([2]; UCP group): 0.25 h
- half-life ([2]; UCP group): 0.908 ± 0.106 h
- Cmax ([2]; UCP group): 44.4 ± 14 ng/mL
- MRT last ([2]; UCP group): 1.19 ± 0.124 h
- MRT inf ([2]; UCP group): 1.46 ± 0.153 h
- AUC(0-inf) ([2]; WCP group): 91.3 ± 6.92 ng·h/mL
- AUC(0-t) ([2]; WCP group): 90.6 ± 6.73 ng·h/mL
- Tmax ([2]; WCP group): 0.25 h
- half-life ([2]; WCP group): 0.537 ± 0.116 h
- Cmax ([2]; WCP group): 71.4 ± 32 ng/mL
- MRT last ([2]; WCP group): 1.27 ± 0.139 h
- MRT inf ([2]; WCP group): 1.54 ± 0.168 h
- Cmax of metabolite, WCP group relative to UCP group ([2]; rats, following oral acteoside 100 mg/kg): 1.61 times

From publication PMC12083017, “Enhanced oral bioavailability of two Cistanche polysaccharides in acteoside: an in-depth analysis of intestinal flora, short-chain fatty acids, and pharmacokinetic regulation” (Frontiers in Nutrition, 2025)
